Test systems include HCC-2998 colon; MOLT-4 leukemia; NCI-H460 lung; NCI-H522 lung; OVCAR-8 ovarian; SF-295 CNS; SK-MEL-5 melanoma; UACC-257 melanoma; UO-31 renal; COLO 205 colon.
Holding throughout (assay): NCI-60 cell line screen, 48 h

The structures appear in SMILES notation.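 96-well plates; 48 h exposure; 5 concentrations. Endpoints by linear interpolation between flanking doses. Not reached: highest tested concentration assigned. GI50 = concentration required for 50% inhibition of growth. Definition used: TGI = concentration required for complete inhibition of growth.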 Bounds are passed on as bounds.

For `CC(=O)OC1C2(CC3N4C(=O)C5(CO)SSC4(CC31O)C(=O)N5C)OC(C)C(C)(C)C2=O` (stereo not drawn), the GI50 in the experiment on HCC-2998 colon is < 0.018 µM; with MOLT-4 leukemia, < 0.0179 µM; in the experiment on NCI-H460 lung, < 0.0485 µM; with NCI-H522 lung, 1.33 µM; with OVCAR-8 ovarian it was < 0.0495 µM; with SF-295 CNS it was 1.96 µM. Further, the GI50 in the experiment on SK-MEL-5 melanoma is 0.0389 µM; in the experiment with UACC-257 melanoma, 0.224 µM; in the experiment with UO-31 renal, 0.0952 µM. Also, the TGI stood at 0.0538 µM in the experiment on HCC-2998 colon; 0.0622 µM in the experiment with MOLT-4 leukemia; 0.217 µM with NCI-H460 lung; 3.17 µM in the experiment with NCI-H522 lung; 0.222 µM with OVCAR-8 ovarian; 3.94 µM in the experiment on SF-295 CNS. The TGI was 0.0947 µM in the experiment with SK-MEL-5 melanoma, 0.651 µM with UACC-257 melanoma and 1.05 µM in the experiment on UO-31 renal.

With `N/N=C(\Cc1ccccc1)NN=C(N)N`, the TGI with COLO 205 colon, in the experiment on HCC-2998 colon, in the experiment with MOLT-4 leukemia, with NCI-H460 lung, with NCI-H522 lung and in the experiment with OVCAR-8 ovarian was > 100 µM in each case. Besides, the TGI in the experiment on SF-295 CNS, in the experiment on SK-MEL-5 melanoma, in the experiment with UACC-257 melanoma and in the experiment with UO-31 renal was > 100 µM in each case.

As for `O=C1c2ccccc2C(=O)C1C(c1ccc([N+](=O)[O-])cc1)C1C(=O)c2ccccc2C1=O`, the TGI with COLO 205 colon is > 100 µM; with HCC-2998 colon, > 100 µM; with MOLT-4 leukemia, > 100 µM; with NCI-H460 lung it was > 100 µM; in the experiment on NCI-H522 lung, > 100 µM; in the experiment with OVCAR-8 ovarian, 72.8 µM. Further, the TGI with SF-295 CNS, with SK-MEL-5 melanoma, in the experiment with UACC-257 melanoma and in the experiment on UO-31 renal was > 100 µM in each case.

Turning to `C=C(C)CCC(C)N1CCC(N2CCC(C(=O)NCCc3ccccc3)CC2)CC1` (stereo not drawn), the GI50 with COLO 205 colon was 13.4 µM; in the experiment on HCC-2998 colon it was 37.9 µM; in the experiment with MOLT-4 leukemia, 45.9 µM; in the experiment with NCI-H460 lung, 37.8 µM; in the experiment on NCI-H522 lung, 14 µM; with OVCAR-8 ovarian, 27.8 µM. Also, the GI50 in the experiment with SF-295 CNS is 11.9 µM; in the experiment with SK-MEL-5 melanoma it was 4.2 µM; in the experiment with UACC-257 melanoma, 13.5 µM; in the experiment on UO-31 renal, 11 µM. The TGI in the experiment with COLO 205 colon was 33.8 µM; in the experiment with HCC-2998 colon it was > 100 µM; with MOLT-4 leukemia it was > 100 µM; in the experiment with NCI-H460 lung, > 100 µM; with NCI-H522 lung, 54.4 µM; in the experiment with OVCAR-8 ovarian, > 100 µM. Further, the TGI with SF-295 CNS was 26.1 µM; with SK-MEL-5 melanoma, 16.8 µM; in the experiment on UACC-257 melanoma, 30.5 µM; in the experiment on UO-31 renal it was 25.3 µM.

Regarding `CCCCC[C@H]1C/C=C2/C(=O)C(Cl)=C[C@@H]2C/C=C\CCCC(=O)O[C@@H](CCCCC)C/C=C2/C(=O)C(Cl)=C[C@@H]2C/C=C\CCCC(=O)O1`, the GI50 was 0.316 µM with COLO 205 colon; 0.349 µM in the experiment with HCC-2998 colon; 0.234 µM in the experiment on MOLT-4 leukemia; 0.405 µM in the experiment with NCI-H460 lung; 0.352 µM in the experiment with NCI-H522 lung; 0.38 µM in the experiment on OVCAR-8 ovarian. Besides, the GI50 in the experiment on SF-295 CNS is 0.362 µM; with SK-MEL-5 melanoma, 0.325 µM; in the experiment with UACC-257 melanoma it was 0.366 µM; with UO-31 renal, 0.269 µM. Also, the TGI was found to be 0.687 µM in the experiment on COLO 205 colon; 0.651 µM with HCC-2998 colon; 1.71 µM in the experiment on MOLT-4 leukemia; 1.02 µM with NCI-H460 lung; 0.78 µM in the experiment with NCI-H522 lung; 1.59 µM in the experiment with OVCAR-8 ovarian. For the same compound, the TGI in the experiment with SF-295 CNS was 0.861 µM; in the experiment on SK-MEL-5 melanoma, 0.659 µM; in the experiment with UACC-257 melanoma, 0.932 µM; with UO-31 renal, 0.508 µM.

For the compound `Fc1ccc(Nc2nccc(-c3c(-c4ccc(C(F)(F)F)cc4)nn4ncccc34)n2)cc1F`, the GI50 in the experiment with COLO 205 colon, with HCC-2998 colon, in the experiment on MOLT-4 leukemia, with NCI-H460 lung, with NCI-H522 lung and with OVCAR-8 ovarian was > 25 µM throughout. Moreover, the GI50 with SF-295 CNS is > 18.9 µM; in the experiment with SK-MEL-5 melanoma, > 25 µM; with UACC-257 melanoma, > 25 µM; with UO-31 renal, > 25 µM. The TGI in the experiment on COLO 205 colon, with HCC-2998 colon, in the experiment on MOLT-4 leukemia, with NCI-H460 lung, in the experiment with NCI-H522 lung and with OVCAR-8 ovarian was > 25 µM each time. In addition, the TGI in the experiment with SF-295 CNS, in the experiment with SK-MEL-5 melanoma, in the experiment on UACC-257 melanoma and in the experiment with UO-31 renal was > 25 µM throughout.

Regarding `COC(=O)[C@]1(C)CCC[C@@]2(C)C1CCC1=C[C@@]3(C(C)C)CC[C@]12OO3` (stereo partly drawn), the TGI in the experiment on COLO 205 colon was 45 µM; with HCC-2998 colon it was > 100 µM; with MOLT-4 leukemia, 83.1 µM; in the experiment on NCI-H460 lung it was 56.5 µM; in the experiment on NCI-H522 lung, 35.4 µM; in the experiment on OVCAR-8 ovarian, > 100 µM. Further, the TGI was 64.4 µM with SF-295 CNS, 33.3 µM with SK-MEL-5 melanoma, > 100 µM in the experiment on UACC-257 melanoma and 40.2 µM in the experiment with UO-31 renal.

Turning to `COc1ccc(COCC(Cn2ccnc2)OCc2ccc(C(=O)O)cc2)cc1` (stereo not drawn), the TGI in the experiment on COLO 205 colon, in the experiment with HCC-2998 colon, in the experiment on MOLT-4 leukemia, in the experiment on NCI-H460 lung, in the experiment on NCI-H522 lung and with OVCAR-8 ovarian was > 100 µM each time. Further, the TGI in the experiment with SF-295 CNS, with SK-MEL-5 melanoma, in the experiment with UACC-257 melanoma and in the experiment with UO-31 renal was > 100 µM each time.

As to `Oc1cc(Cl)ccc1Oc1ccc(Cl)cc1Cl`, the GI50 in the experiment on COLO 205 colon was 3.88 µM; with HCC-2998 colon, 2.57 µM; with MOLT-4 leukemia, 3.74 µM; in the experiment with NCI-H460 lung, 2.85 µM; with NCI-H522 lung, 2.36 µM; in the experiment with OVCAR-8 ovarian, 2.81 µM. Further, the GI50 was 1.75 µM with SK-MEL-5 melanoma, 2.28 µM with UACC-257 melanoma and 2.76 µM in the experiment on UO-31 renal. Moreover, the TGI in the experiment on COLO 205 colon amounted to 13.3 µM; in the experiment on HCC-2998 colon, 6.61 µM; in the experiment on MOLT-4 leukemia, 11.3 µM; with NCI-H460 lung it was 8.3 µM; in the experiment with NCI-H522 lung, 6.05 µM; in the experiment on OVCAR-8 ovarian, 9.18 µM. In addition, the TGI with SK-MEL-5 melanoma is 3.59 µM; in the experiment with UACC-257 melanoma, 6.48 µM; in the experiment on UO-31 renal, 12 µM.

On to `CC(CCCOC(c1ccccc1)(c1ccccc1)c1ccccc1)OC(=O)Nc1cc([N+](=O)[O-])cc([N+](=O)[O-])c1` (stereo not drawn), for which the TGI in the experiment on HCC-2998 colon was > 100 µM; in the experiment with MOLT-4 leukemia, > 100 µM; with NCI-H460 lung it was 73.2 µM; in the experiment with NCI-H522 lung, 59.5 µM; in the experiment with OVCAR-8 ovarian it was > 100 µM; with SF-295 CNS it was > 100 µM. In addition, the results for the TGI in the experiment on SK-MEL-5 melanoma, in the experiment on UACC-257 melanoma and in the experiment on UO-31 renal were 44.6 µM, 85.1 µM and > 100 µM, respectively.

Consider `Cc1ccc2c(c1)ncn2-c1ncnc2c1CC(C)c1ccccc1N2C` (stereo not drawn), for which the GI50 in the experiment on COLO 205 colon is 0.198 µM; in the experiment with HCC-2998 colon, 0.304 µM; in the experiment on MOLT-4 leukemia, 0.0607 µM; in the experiment on NCI-H460 lung, 0.225 µM; in the experiment with NCI-H522 lung it was 0.121 µM; in the experiment with OVCAR-8 ovarian it was 0.381 µM. Besides, the values for the GI50 in the experiment with SF-295 CNS, in the experiment with SK-MEL-5 melanoma and in the experiment on UO-31 renal were 0.0486 µM, 0.138 µM and 0.317 µM, respectively. In addition, the TGI was determined as 0.666 µM with COLO 205 colon; 14.5 µM in the experiment with HCC-2998 colon; 4.36 µM in the experiment with MOLT-4 leukemia; 11.3 µM in the experiment with NCI-H460 lung; 5.68 µM in the experiment on NCI-H522 lung; 22.9 µM in the experiment on OVCAR-8 ovarian. Also, the TGI in the experiment on SF-295 CNS was found to be 12.2 µM; in the experiment with SK-MEL-5 melanoma, 1.32 µM; in the experiment on UO-31 renal it was 7.11 µM.

As to `CC(C)[C@@H](COC(C)(C)C)N=CN1CCc2c([nH]c3ccccc23)C1`, the TGI with COLO 205 colon, with HCC-2998 colon, with MOLT-4 leukemia, with NCI-H460 lung, in the experiment with NCI-H522 lung and in the experiment on OVCAR-8 ovarian was > 100 µM throughout. Besides, the TGI in the experiment on SF-295 CNS, in the experiment on SK-MEL-5 melanoma and in the experiment on UO-31 renal was > 100 µM in each case.

Consider `CS(=O)(=O)Nc1cc(-c2ccc3ncnc(Nc4ccc5c(cnn5Cc5ccc(F)cc5)c4)c3c2)cnc1Cl`, for which the GI50 in the experiment on COLO 205 colon was 1.96 µM; in the experiment with HCC-2998 colon, 1.41 µM; in the experiment on MOLT-4 leukemia, 0.801 µM; in the experiment on NCI-H460 lung, 2.8 µM; in the experiment with NCI-H522 lung, 1.79 µM; in the experiment on OVCAR-8 ovarian it was 3.02 µM. Besides, the GI50 was 2.06 µM in the experiment on SF-295 CNS, 1.52 µM in the experiment on SK-MEL-5 melanoma and 2.17 µM in the experiment with UACC-257 melanoma. The TGI in the experiment with COLO 205 colon was 6.02 µM; with HCC-2998 colon it was 3.17 µM; in the experiment with MOLT-4 leukemia it was 3.89 µM; in the experiment with NCI-H460 lung it was 13.3 µM; in the experiment on NCI-H522 lung, 12.8 µM; with OVCAR-8 ovarian, > 100 µM. For the same compound, the values for the TGI in the experiment with SF-295 CNS, in the experiment with SK-MEL-5 melanoma and in the experiment with UACC-257 melanoma were 9.61 µM, 2.89 µM and 17.9 µM, respectively.

Turning to `Cn1cc(-c2ccc(CNc3cc(-c4cnc5cc(OCCCN6CCCC6)ccn45)ncn3)cc2)cn1`, the GI50 in the experiment on COLO 205 colon was 10.6 µM; in the experiment on HCC-2998 colon, 2.21 µM; with MOLT-4 leukemia, 2.76 µM; in the experiment on NCI-H460 lung, 1.77 µM; in the experiment on NCI-H522 lung, 18.6 µM; in the experiment on OVCAR-8 ovarian, 1.81 µM. In addition, the GI50 was 1.51 µM in the experiment on SK-MEL-5 melanoma, 2.23 µM in the experiment with UACC-257 melanoma and 1.41 µM with UO-31 renal. The TGI with COLO 205 colon is 25.9 µM; with HCC-2998 colon, 5.71 µM; in the experiment on MOLT-4 leukemia, > 100 µM; in the experiment on NCI-H460 lung, 3.37 µM; in the experiment with NCI-H522 lung it was 37.8 µM; with OVCAR-8 ovarian, 3.61 µM. The TGI was 2.85 µM in the experiment on SK-MEL-5 melanoma, 5.5 µM in the experiment on UACC-257 melanoma and 2.82 µM in the experiment with UO-31 renal.

Values taken from PubChem BioAssay (NCI).
